# In patent US12662530B2, “Anti-ADM-antibodies binding to the free N-terminus for accelerated transition of ADM-Gly to bio-ADM in patients with ADM-Gly/ bio-ADM ratio above a threshold and combination with vitamin C” (SphingoTec GmbH, priority 2020, dated 2026):
# How the values were obtained:
# [1] = test system: native PAM; assay: ADM maturation activity (AMA) of native PAM in Li-Heparin plasma with antibody and varying L-ascorbate; type: biochemical, human
# Protocol: A serial antibody-dilution with concentrations of 0, 5, 10, 50, 100, 500 and 3000 μg/mL per well, respectively (in 20 μl) were pipetted into 96-well micro-titer plates. Then 160 μl PAM reaction buffer (100 mM Tris-HCl, 6.25 μM CuSO4, 62.5 μM amastatin, 250 μM leupeptin, 36 ng/mL ADM-Gly) with varying L-ascorbate concentrations was added to the wells and incubated for 15 min. Afterwards the reaction was started by addition of 20 μl of Li-Heparin plasma, containing native PAM Immediately after addition of plasma, 100 μl from each well were removed and inactivated by addition of EDTA (20 mM final concentration) to generate a t=0 minutes reaction point. Inactivated and non-inactivated samples were incubated for 40 minutes at 37° C. and the reaction in non-inactivated samples was stopped as described above. For quantification of produced ADM-NH2 the Sphingotest® bio-ADM Kit (Weber et al. 2017) was utilized according to manufacturer's manual. The ADM maturation activity (AMA) was calculated according to equation 1 (DF=dilution factor of sample matrix).
# [2] = test system: septic patients; settings: intravenous; placebo group 46%; cited from earlier work
smiles,measurement,setting,value
"O=C1O[C@H]([C@@H](O)CO)C(O)=C1O [ascorbate, L-ascorbic acid, reference compound]",effect on ADM maturation activities,"[1]; ascorbate in the range of 0.4-2 mM, FIG. 15",led to increasing ADM maturation activities
same,activity optimum of the amidating reaction (ascorbate concentration),[1]; with and without HAM8101,0.8 to 2 mM
same,mortality at day 28,[2],~30%
